Measured values from patent publication US20200308539A1, “AFFINITY-TAGGED PHOTOSWITCHES AND METHODS OF USE THEREOF” (The Regents of the University of California, priority 2017, published 2020).

Experiments:
[1] = biological target: T1, mGluR5 (Homo sapiens, UniProt P41594); assay: Calcium waves (FLUO-4) in HEK293 cells expressing mGluR5; assay type: cell-based; details: HEK293 cells expressing mGluR5, FLUO-4
T1 construct: expressed in transfected cells; host or cells: HEK293 cells
Protocol: (§1) However, the goal was to target the native, unmodified proteins in cells, tissues or the intact organism, and this would require the affinity moiety to attach directly to the target protein, something that could impact function of the target protein. […] This notion was tested by asking whether there would be a functional impact of nanobody binding to an mGluR. For this purpose, mGluR5 was selected. mGluR5 is a Gq-coupled receptor whose activation stimulates phospholipase C to generate IP3 and trigger the release of calcium from internal stores, which could detect with the calcium indicator FLUO-4 that was loaded into the cells in its AM ester form. […] The activation of the receptor by NB-8260 could be directly detected using single molecule fluorescence resonance energy transfer (smFRET). SNAP-mGluR5 dimers labeled in HEK293 cells with a mixture of FRET donor and acceptor (green and red) BG dyes were isolated by cell lysis and immune-purified and immobilized at low density on a passivated glass surface (FIG. 6A) for total internal reflection fluorescence (TRIF) microscopy. Individual spots containing both the green and red dye (i.e. one on each subunit of the dimer) were selected for analysis and FRET levels measured: i) in the absence of ligand; ii) in 0.8 mM glutamate; iii) in the presence of a nanobody; or iv) in a combination of 0.8 mM glutamate and the nanobody. […]

[2] = system: mGluR5; assay: Single molecule FRET (smFRET) of SNAP-mGluR5 dimers, TIRF microscopy; assay type: biochemical; details: 0.8 mM glutamate; absence of ligand ~0.5
Protocol: as §1

T1 sequence (P41594 21-1212): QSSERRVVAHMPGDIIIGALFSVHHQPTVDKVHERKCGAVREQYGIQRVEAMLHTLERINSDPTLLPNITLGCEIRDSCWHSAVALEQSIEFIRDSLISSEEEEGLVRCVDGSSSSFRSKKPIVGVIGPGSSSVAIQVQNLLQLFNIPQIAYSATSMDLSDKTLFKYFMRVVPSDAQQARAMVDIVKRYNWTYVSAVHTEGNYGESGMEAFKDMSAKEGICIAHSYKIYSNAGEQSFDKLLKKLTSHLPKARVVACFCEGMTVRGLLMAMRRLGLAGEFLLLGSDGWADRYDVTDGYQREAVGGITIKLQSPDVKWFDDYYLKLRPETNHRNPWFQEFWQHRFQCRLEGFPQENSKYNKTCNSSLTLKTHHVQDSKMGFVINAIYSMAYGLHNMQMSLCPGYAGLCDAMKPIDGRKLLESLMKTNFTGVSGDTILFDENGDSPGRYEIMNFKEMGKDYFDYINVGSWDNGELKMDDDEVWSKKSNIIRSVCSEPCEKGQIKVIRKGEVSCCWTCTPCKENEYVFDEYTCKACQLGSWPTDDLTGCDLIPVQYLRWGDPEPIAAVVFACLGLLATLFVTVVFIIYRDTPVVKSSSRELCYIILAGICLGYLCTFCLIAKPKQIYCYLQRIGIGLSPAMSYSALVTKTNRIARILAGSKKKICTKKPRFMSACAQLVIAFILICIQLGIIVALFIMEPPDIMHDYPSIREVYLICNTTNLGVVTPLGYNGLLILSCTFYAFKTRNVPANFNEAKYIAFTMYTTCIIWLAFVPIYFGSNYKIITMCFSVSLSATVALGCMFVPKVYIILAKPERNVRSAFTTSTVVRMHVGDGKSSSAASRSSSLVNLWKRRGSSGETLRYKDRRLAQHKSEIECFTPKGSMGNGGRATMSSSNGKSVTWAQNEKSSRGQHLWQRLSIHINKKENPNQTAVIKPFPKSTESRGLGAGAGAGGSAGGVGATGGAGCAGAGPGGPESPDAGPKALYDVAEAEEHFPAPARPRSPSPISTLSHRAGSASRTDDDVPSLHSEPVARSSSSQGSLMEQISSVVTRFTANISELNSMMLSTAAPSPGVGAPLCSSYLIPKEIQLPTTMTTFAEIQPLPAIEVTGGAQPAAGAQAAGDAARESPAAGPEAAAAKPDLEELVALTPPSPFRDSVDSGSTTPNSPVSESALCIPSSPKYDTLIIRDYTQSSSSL

- activation of calcium waves [1]: activates calcium waves
Compound: N[C@@H](CCC(=O)O)C(=O)O [glutamate]
- FRET level [2]: ~0.3
